Measurements: patent US20250090437A1, “COSMETIC COMPOUNDING AGENT, COSMETIC AND PRODUCTION METHOD THEREOF” (MIYOSHI OIL & FAT CO., LTD., priority 2019, published 2025)

Assay: Water retention property test 2 (hydrates)
Format: physicochemical
Details: hydrate (anhydrides: aqueous solution at mono- to trihydrate concentration); for Pre-test moisture rate: before the test; for Post-test moisture rate / Rate of reduction in moisture: unsealed, 24 hours at 40° C. and 25% RH
Protocol: (2) Water retention property test 2 The water retention property of the hydrate of each compound was evaluated. Hydrates were used in the cases of the compounds C1 to C38, C40 to C49 and C56 to C59; however, since the compounds C39 and C62 to C64 were anhydrides, there were used aqueous solutions prepared by adding water so that a concentration would be that of monohydrate to trihydrate. The moisture rate of the sample(s) was confirmed using a Karl Fischer moisture meter (pre-test moisture rate: A). Next, 1.0 g of each of these samples was added to a screw tube, and this screw tube, while remaining unsealed, was then left to stand still for 24 hours in a thermo-hygrostat set to 40° C. and 25% RH. A moisture rate after 24 hours was again measured (post-test moisture rate: B), followed by calculating a rate of reduction in moisture in a similar manner as above so as to evaluate the water retention property. Here, a comparative evaluation was performed on each hydrate of the compounds C1 to C38, C40 to C49 and C56 to C59 together with an aqueous solution(s) of the compound C39 having a concentration(s) corresponding to the numbers of these hydration waters.
(monohydrates in compounds C1 to C38, C40 to C49 and C56 to C59 of working examples C62 to C99, C103 to C116 with compound C39 of working example C100, compound C62 of comparative example C4, compound C63 of comparative example C7 and compound C64 of comparative example C10)
(dihydrates in compounds C1 to C38, C40 to C49 and C56 to C59 of working examples C62 to C99, C103 to C116 with compound C39 of working example C101, compound C62 of comparative example C5, compound C63 of comparative example C8 and compound C64 of comparative example C11)
(trihydrates in compounds C1 to C38, C40 to C49 and C56 to C59 of working examples C62 to C99, C103 to C116 with compound C39 of working example C102, compound C62 of comparative example C6, compound C63 of comparative example C9 and compound C64 of comparative example C12)

SMILES | Pre-test moisture rate [%] | Post-test moisture rate [%] | Rate of reduction in moisture [%]
CCCC[N+](CCCC)(CCCC)CCCC.[Br-] [Comparative example C4] | 2.5 | 4.9 | 8.1
CCCC[N+](CCCC)(CCCC)CCCC.[Br-] [Comparative example C5] | 10.1 | 8.6 | 15.1
CCCC[N+](CCCC)(CCCC)CCCC.[Br-] [Comparative example C6] | 14.4 | 10.8 | 25.1
CCCCn1cc[n+](C)c1.F[B-](F)(F)F [Comparative example C7] | 7.4 | 3.9 | 47.3
CCCCn1cc[n+](C)c1.F[B-](F)(F)F [Comparative example C8] | 13.8 | 7.1 | 48.6
CCCCn1cc[n+](C)c1.F[B-](F)(F)F [Comparative example C9] | 19.3 | 11.2 | 42.1
OCC(O)CO [Comparative example C10] | 16.4 | 15.3 | 6.7
OCC(O)CO [Comparative example C11] | 28.1 | 24.4 | 13.3
OCC(O)CO [Comparative example C12] | 37.0 | 31.9 | 13.7
O=C1O[C@H]([C@@H](O)CO)C(O)=C1O.OCCNCCO [Comparative example C104] | 11.4 | 11.0 | 3.5
O=C1OC(C(O)CO)C(O)=C1O.OCCN(CCO)CCO (stereo not drawn) [Comparative example C105] | 10.0 | 9.8 | 2.0
NC(CO)CO.O=C1O[C@H]([C@@H](O)CO)C(O)=C1O [Comparative example C106] | 11.9 | 11.7 | 1.7
CC(O)C(=O)O.NCCO (stereo not drawn) [Working example C62] | 10.7 | 10.5 | 1.9
CC(O)C(=O)O.OCCNCCO [Working example C63] | 15.6 | 14.9 | 4.6
O=C(O)CO.OCCNCCO [Working example C64] | 16.6 | 16.1 | 3.0
O=C(O)CCC(=O)O.OCCNCCO [Working example C65] | 13.9 | 13.1 | 6.0
CC(O)C(=O)O.OCCN(CCO)CCO [Working example C66] | 18.4 | 17.7 | 3.8
CC(=O)O.NC(CO)CO [Working example C67] | 19.3 | 18.8 | 2.8
NC(CO)CO.O=C(O)CO [Working example C68] | 17.7 | 17.3 | 2.0
CC(O)C(=O)O.NC(CO)CO (stereo not drawn) [Working example C69] | 16.6 | 16.1 | 2.8
NC(CO)CO.O=C(O)CCC(=O)O [Working example C70] | 14.7 | 13.9 | 5.4
NC(CO)CO.O=C(O)CC(O)(CC(=O)O)C(=O)O [Working example C71] | 11.3 | 10.7 | 5.4
CS(=O)(=O)O.NC(CO)CO [Working example C72] | 16.1 | 16.0 | 0.4
F[B-](F)(F)F.[NH3+]C(CO)CO [Working example C73] | 16.8 | 15.9 | 5.5

SMILES | Pre-test moisture rate [%] | Post-test moisture rate [%] | Rate of reduction in moisture [%]
Br.NC(CO)CO [Working example C74] | 17.3 | 15.7 | 9.5
Cl.NC(CO)CO [Working example C75] | 22.0 | 19.7 | 10.5
CC(O)C(=O)O.CCC(N)(CO)CO [Working example C76] | 14.7 | 14.3 | 3.0
CCC(N)(CO)CO.O=C(O)CC(O)(CC(=O)O)C(=O)O [Working example C77] | 10.4 | 9.9 | 4.9
CCC(N)(CO)CO.CS(=O)(=O)O [Working example C78] | 14.3 | 14.2 | 0.9
Br.CCC(N)(CO)CO [Working example C79] | 15.3 | 13.9 | 8.9
CCC(N)(CO)CO.Cl [Working example C80] | 18.8 | 17.0 | 9.8
CC(O)C(=O)O.NC(CO)(CO)CO [Working example C81] | 13.2 | 12.9 | 2.6
NC(CO)(CO)CO.O=C(O)CC(O)(CC(=O)O)C(=O)O [Working example C82] | 10.3 | 9.8 | 5.0
CS(=O)(=O)O.NC(CO)(CO)CO [Working example C83] | 14.2 | 14.0 | 1.1
CC(O)C(=O)O.NCC(O)C(O)C(O)C(O)CO (stereo not drawn) [Working example C84] | 11.7 | 11.4 | 2.8
CC(O)C(=O)O.N (stereo not drawn) [Working example C85] | 14.4 | 13.7 | 4.7
CC(O)C(=O)[O-].CCC(CO)(CO)[N+](CC(O)CO)(CC(O)CO)CC(O)CO (stereo not drawn) [Working example C86] | 7.9 | 7.5 | 4.8
CC(O)C(=O)[O-].OCC[N+](CCO)(CCO)CCO [Working example C87] | 11.2 | 10.7 | 4.8
CC(=O)[O-].C[N+](C)(C)CCO [Working example C88] | 9.9 | 9.5 | 4.0
C[N+](C)(C)CCO.O=C([O-])CO [Working example C89] | 9.1 | 8.9 | 2.6
CC(O)C(=O)[O-].C[N+](C)(C)CCO [Working example C90] | 8.5 | 8.1 | 4.9
C[N+](C)(C)CCO.O=C([O-])C=CC(=O)O [Working example C91] | 7.6 | 7.2 | 5.0
C[N+](C)(C)CCO.O=C([O-])CCC(=O)O [Working example C92] | 7.5 | 7.1 | 5.0
CS(=O)(=O)[O-].C[N+](C)(C)CCO [Working example C93] | 8.3 | 8.1 | 2.0
C[N+](C)(C)CCO.O=P([O-])(O)O [Working example C94] | 8.2 | 8.0 | 2.8
C[N+](C)(C)CCO.O=[PH2][O-] [Working example C95] | 9.6 | 9.3 | 2.9
C[N+](C)(C)CCO.[Cl-] [Working example C96] | 11.4 | 10.7 | 6.0
